Laboratory results reported in patent US11040981B2, “Pyrrolotriazine compounds and methods of inhibiting TAM kinases” (Syros Pharmaceuticals, Inc., priority 2017, dated 2021).

Key:
[1] = target: T1, MERTK (Homo sapiens, UniProt Q12866); test: TR-FRET kinase activity assay, MERTK; assay type: biochemical; conditions: for IC50: TR-FRET activity assay, ATP at Km, 60 minutes, read-out: Mer IC50
T1 sequence (Q12866 21-999): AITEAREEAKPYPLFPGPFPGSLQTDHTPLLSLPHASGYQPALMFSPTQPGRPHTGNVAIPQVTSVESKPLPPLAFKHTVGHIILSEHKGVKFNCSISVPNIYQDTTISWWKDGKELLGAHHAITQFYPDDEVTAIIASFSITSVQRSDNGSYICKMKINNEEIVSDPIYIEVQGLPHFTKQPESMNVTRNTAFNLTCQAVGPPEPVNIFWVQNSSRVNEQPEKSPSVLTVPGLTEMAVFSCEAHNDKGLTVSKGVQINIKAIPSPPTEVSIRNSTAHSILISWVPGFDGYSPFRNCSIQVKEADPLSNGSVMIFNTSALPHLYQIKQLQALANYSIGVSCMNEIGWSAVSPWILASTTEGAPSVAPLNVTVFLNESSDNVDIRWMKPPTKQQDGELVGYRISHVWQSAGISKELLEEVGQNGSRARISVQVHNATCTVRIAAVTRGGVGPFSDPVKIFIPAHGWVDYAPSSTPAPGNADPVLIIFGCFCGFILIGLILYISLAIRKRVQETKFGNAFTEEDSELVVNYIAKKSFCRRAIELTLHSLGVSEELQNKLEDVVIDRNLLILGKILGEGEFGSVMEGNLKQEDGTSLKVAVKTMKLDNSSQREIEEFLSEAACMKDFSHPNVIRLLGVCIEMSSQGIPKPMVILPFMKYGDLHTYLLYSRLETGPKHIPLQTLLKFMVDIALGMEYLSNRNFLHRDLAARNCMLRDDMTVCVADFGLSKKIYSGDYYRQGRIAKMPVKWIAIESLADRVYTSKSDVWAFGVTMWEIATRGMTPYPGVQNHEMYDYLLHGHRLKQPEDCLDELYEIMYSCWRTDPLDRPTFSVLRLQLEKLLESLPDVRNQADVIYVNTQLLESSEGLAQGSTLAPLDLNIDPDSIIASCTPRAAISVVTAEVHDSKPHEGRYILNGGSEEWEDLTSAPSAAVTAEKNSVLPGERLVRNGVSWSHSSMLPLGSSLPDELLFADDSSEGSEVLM
Summary of the method: (§1)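 Each kinase phosphorylated a fluorescent-labelled tyrosine peptide in 50 mM HEPES pH 7.5, 10 mM MgCl2, 1 mM EGTA, 0.01% Brij 35, 1 mM DTT at RT, with ATP at Km for that enzyme. After 60 min, EDTA quench and Eu-anti-phosphotyrosine antibody (30 min, dark); IC50 from TR-FRET decrease.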

[2] = target: T2, TYRO3 (Homo sapiens, UniProt Q06418); test: TR-FRET kinase activity assay, TYRO3; assay type: biochemical; conditions: ATP at Km, 60 minutes
T2 sequence (Q06418 41-890): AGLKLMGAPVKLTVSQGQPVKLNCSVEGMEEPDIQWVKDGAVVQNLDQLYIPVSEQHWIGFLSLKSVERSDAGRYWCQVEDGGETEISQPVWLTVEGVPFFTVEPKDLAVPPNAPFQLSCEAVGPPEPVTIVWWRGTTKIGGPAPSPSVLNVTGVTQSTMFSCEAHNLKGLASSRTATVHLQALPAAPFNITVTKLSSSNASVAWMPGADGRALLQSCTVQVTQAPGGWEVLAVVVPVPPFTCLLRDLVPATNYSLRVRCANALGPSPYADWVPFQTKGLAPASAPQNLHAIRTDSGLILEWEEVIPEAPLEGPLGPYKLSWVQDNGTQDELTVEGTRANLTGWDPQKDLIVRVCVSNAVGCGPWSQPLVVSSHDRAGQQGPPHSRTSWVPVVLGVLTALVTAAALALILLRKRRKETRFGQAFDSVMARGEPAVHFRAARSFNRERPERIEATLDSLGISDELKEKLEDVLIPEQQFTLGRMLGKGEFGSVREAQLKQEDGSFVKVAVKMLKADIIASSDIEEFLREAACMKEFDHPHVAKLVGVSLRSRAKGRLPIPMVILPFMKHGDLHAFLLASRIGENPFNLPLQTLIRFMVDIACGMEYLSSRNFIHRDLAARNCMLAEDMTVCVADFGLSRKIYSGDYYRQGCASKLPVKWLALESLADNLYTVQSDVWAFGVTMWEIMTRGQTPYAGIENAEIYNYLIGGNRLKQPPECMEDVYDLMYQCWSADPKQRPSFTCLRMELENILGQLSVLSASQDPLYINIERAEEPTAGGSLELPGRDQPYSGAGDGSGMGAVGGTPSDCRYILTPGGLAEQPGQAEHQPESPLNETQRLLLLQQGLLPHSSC
Summary of the method: as §1

[3] = ratio of Mer to FLT3: FLT3 IC50/Mer IC50
[4] = ratio calculated as FLT3 IC50/Mer IC50

Compound | IC50 [1] [nM] | FLT3/Mer ratio (FLT3 IC50/Mer IC50) [1, 3] | IC50 [2] [nM] | FLT3/Mer ratio (FLT3 IC50/Mer IC50) [1, 4]
COC[C@H](C)Nc1ncc2c(-c3ccnc(N4CCS(=O)(=O)CC4)c3)cc([C@H]3CC[C@H](O)CC3)n2n1 [Compound 357] | ≤ 100 | +++ (“+++” represents a ratio of >100) | ≤ 100 | –
COC[C@H](C)Nc1ncc2c([C@H]3CCN(S(C)(=O)=O)C3)cc([C@H]3CC[C@H](O)CC3)n2n1 [Compound 376] | ≤ 100 | +++ (“+++” represents a ratio of >100) | ≤ 100 | –
COC[C@H](C)Nc1ncc2c(-c3cnn(C4CCN(C)C4=O)c3)cc([C@H]3CC[C@H](O)CC3)n2n1 (stereo partly drawn) [Compound 394, 3-(4-(7-((trans)-4-hydroxycyclohexyl)-2-(((S)-1-methoxypropan-2-yl)amino)pyrrolo[2,1-f][1,2,4]triazin-5-yl)-1H-pyrazol-1-yl)-1-methylpyrrolidin-2-one] | ≤ 100 | +++ (“+++” represents a ratio of >100) | ≤ 100 | –
COC[C@H](C)Nc1ncc2c(-c3ccnc(O[C@@H]4CCCN(C)C4)c3)cc([C@H]3CC[C@H](O)CC3)n2n1 [Compound 404] | ≤ 100 | – | ≤ 100 | +++ (“+++” represents a ratio of >100)
CNC(=O)c1ncc(-c2cc([C@H]3CC[C@H](O)CC3)n3nc(N[C@@H](C)COC(F)F)ncc23)cn1 [Compound 407] | ≤ 100 | – | ≤ 100 | +++ (“+++” represents a ratio of >100)
CNC(=O)c1cncc(-c2cc([C@H]3CC[C@H](O)CC3)n3nc(N[C@@H](C)COC(F)F)ncc23)c1 [Compound 398] | ≤ 100 | – | ≤ 100 | +++ (“+++” represents a ratio of >100)
COC[C@H](C)Nc1ncc2c(-c3cnn([C@@H]4CCC(C(=O)OC(C)(C)C)C4)c3)cc([C@H]3CC[C@H](O)CC3)n2n1 (stereo partly drawn) [Compound 364] | ≤ 100 | +++ (“+++” represents a ratio of >100) | ≤ 100 | –
COC[C@H](C)Nc1ncc2c(-c3cc([C@H]4CC[C@H](O)CC4)n4nc(N[C@@H](C)COC)ncc34)cc([C@H]3CC[C@H](O)CC3)n2n1 [Compound 349] | ≤ 100 | +++ (“+++” represents a ratio of >100) | ≤ 100 | –
CNOc1cc(-c2cc([C@H]3CC[C@H](O)CC3)n3nc(N[C@@H](C)COC)ncc23)ccn1 [Compound 361] | ≤ 100 | +++ (“+++” represents a ratio of >100) | ≤ 100 | –
COC[C@H](C)Nc1ncc2c(-c3ccnc(O[C@@H]4CCNC4)c3)cc([C@H]3CC[C@H](O)CC3)n2n1 [Compound 401] | ≤ 100 | – | ≤ 100 | +++ (“+++” represents a ratio of >100)
COC[C@H](C)Nc1ncc2c(-c3ccnc(N[C@@H]4CCOC4)c3)cc([C@H]3CC[C@H](O)CC3)n2n1 [Compound 416] | ≤ 100 | – | ≤ 100 | +++ (“+++” represents a ratio of >100)
OC1CCC(c2cc(-c3ccnc(N4CCOCC4)c3)c3cnc(NCCC4CC4)nn23)CC1 (stereo not drawn) [Compound 359] | ≤ 100 | + (“+” represents a ratio of >2.0 and <10) | ≤ 100 | –
COC[C@H](C)Nc1ncc2c(-c3ccnc(O[C@H]4CCN(C)C4)c3)cc([C@H]3CC[C@H](O)CC3)n2n1 [Compound 400] | ≤ 100 | – | ≤ 100 | +++ (“+++” represents a ratio of >100)
COC[C@H](C)Nc1ncc2c(-c3ccnc(O[C@H]4CCNC4)c3)cc([C@H]3CC[C@H](O)CC3)n2n1 [Compound 386] | ≤ 100 | +++ (“+++” represents a ratio of >100) | ≤ 100 | –
COC[C@H](C)Nc1ncc2c(-c3cnn(C(C)(C)C(=O)N4C[C@@H](C)O[C@H](C)C4)c3)cc([C@H]3CC[C@H](O)CC3)n2n1 [Compound 367] | ≤ 100 | +++ (“+++” represents a ratio of >100) | ≤ 100 | –
COC[C@H](C)Nc1ncc2c(-c3ccnc(OC4COC4)c3)cc([C@H]3CC[C@H](O)CC3)n2n1 [Compound 358] | ≤ 100 | +++ (“+++” represents a ratio of >100) | ≤ 100 | –
CNS(=O)(=O)c1ccc(-c2cc([C@H]3CC[C@H](O)CC3)n3nc(N[C@@H](C)CC(F)(F)F)ncc23)cn1 [Compound 360] | ≤ 100 | ++ (“++” represents a ratio of between 10 and 100) | ≤ 100 | –
C[C@@H](COC(F)F)Nc1ncc2c(-c3ccnc(N4CCOCC4)c3)cc([C@H]3CC[C@H](O)CC3)n2n1 [Compound 405] | ≤ 100 | – | ≤ 100 | +++ (“+++” represents a ratio of >100)
COC[C@H](C)Nc1ncc2c(-c3ccnc(OC4CCNCC4)c3)cc([C@H]3CC[C@H](O)CC3)n2n1 [Compound 369] | ≤ 100 | +++ (“+++” represents a ratio of >100) | ≤ 100 | –
COC[C@H](C)Nc1ncc2c(-c3cnn([C@@H]4CCN(C(C)=O)C4)c3)cc([C@H]3CC[C@H](O)CC3)n2n1 [Compound 396] | ≤ 100 | – | ≤ 100 | +++ (“+++” represents a ratio of >100)
C[C@H](CN(C)C)Nc1ncc2c(-c3cnn(C4COC4)c3)cc([C@H]3CC[C@H](O)CC3)n2n1 [Compound 388] | 100 to 1000 | ++ (“++” represents a ratio of between 10 and 100) | 1000 to 10000 | –
CC[C@H](C)Nc1ncc2c(-c3cncc(S(C)(=O)=O)c3)cc([C@H]3CC[C@@H](O)CC3)n2n1 [Compound 120] | ≤ 100 | +++ (“+++” represents a ratio of >100) | ≤ 100 | –
CC(C)Nc1ncc2c(-c3ccnc(N4CCOCC4)c3)cc([C@H]3CC[C@H](O)CC3)n2n1 [Compound 350] | ≤ 100 | +++ (“+++” represents a ratio of >100) | ≤ 100 | –
COC[C@H](C)Nc1ncc2c(-c3cnn(CC4COC4)c3)cc([C@H]3CC[C@H](O)CC3)n2n1 [Compound 420] | ≤ 100 | – | ≤ 100 | +++ (“+++” represents a ratio of >100)
COC[C@H](C)Nc1ncc2c(-c3cnn([C@@H]4CO[C@H]5OCC[C@H]54)c3)cc([C@H]3CC[C@H](O)CC3)n2n1 [Compound 422] | ≤ 100 | – | ≤ 100 | +++ (“+++” represents a ratio of >100)
COC[C@H](C)Nc1ncc2c([C@@H]3CCCN(c4ccnc(C)n4)C3)cc([C@H]3CC[C@H](O)CC3)n2n1 [Compound 378] | ≤ 100 | +++ (“+++” represents a ratio of >100) | 100 to 1000 | –
C[C@@H](CN(C)C)Nc1ncc2c(-c3cnn(C4COC4)c3)cc([C@H]3CC[C@H](O)CC3)n2n1 [Compound 387] | 100 to 1000 | ++ (“++” represents a ratio of between 10 and 100) | 100 to 1000 | –
